Experimental data as given in patent US20240415114A1, “AGROCHEMICAL FORMULATIONS FOR MITIGATING CRYSTALLIZATION” (SYNGENTA CROP PROTECTION AG, priority 2021, published 2024).

Experiments:
[1] = Crystallization study of formulation containing fludioxonil (storage, 325 mesh sieve residue); assay type: physicochemical; conditions: 2 weeks Condition 1 then 2 weeks at 25° C. or 5° C., FIG. 3
Description: A formulation containing 0.72% w/w fludioxonil, 0.72% w/w picarbutrazox, 1.43% w/w sedaxane, 4.30% w/w thiabendazole and 1.07% w/w mefenoxam was prepared with castor oil or MK 116 Wax or soybean oil as the flow aid. Castor oil loading was maintained at 10% w/w. MK 116 wax loading was maintained at 5% w/w, whereas soybean oil concentration was varied over a range of 5-12% w/w. The formulation was aliquoted into 50 g samples and placed at temperatures of 50° C., 45° C. 38° C., a freeze thaw cycle going from 50° C. to −10° C. and at 25° C. These formulations were stored for 2 weeks at the indicated conditions (Condition 1), after which they were removed and placed at 25° C. or 5° C. for 2 weeks (Condition 2). After completion of the storage regime, the formulations were diluted with 200 mL of water and poured through a 325 mesh sieve. The residue was collected and analysed for the presence of fludioxonil.

[2] = Solubility of fludioxonil in various vegetable oils; assay type: physicochemical; conditions: 5C, 25C and 50C, FIG. 1
Description: 0.5 g of fludioxonil technical was mixed separately with 5 g of various oils (peanut oil, castor oil, cottonseed oil, olive oil, canola oil, linseed oil, sunflower oil, safflower oil, corn oil, and soybean oil) and incubated at 3 different temperatures (5C, 25C and 50C). The mixtures were then centrifuged and the clear oil supernatant was recovered and analyzed for fludioxonil content.

N#Cc1c[nH]cc1-c1cccc2c1OC(F)(F)O2 [fludioxonil]
loss of fludioxonil (fludioxonil content of sieve residue) ([1]; MK 116 wax 5% w/w as flow aid): resulted in loss of fludioxonil | loss of fludioxonil (fludioxonil content of sieve residue) ([1]; castor oil 10% w/w as flow aid): did not | loss of fludioxonil (fludioxonil content of sieve residue) ([1]; soybean oil 5-12% w/w as flow aid): resulted in loss of fludioxonil | solubility of fludioxonil in oil ([2]; all other oils (peanut, cottonseed, olive, canola, linseed, sunflower, safflower, corn, soybean)): essentially the same solubilities | solubility of fludioxonil in oil ([2]; castor oil): significantly improved solubility
